These results are taken from paper PMC7136958, “Targeting the pregnane X receptor using microbial metabolite mimicry” (EMBO Molecular Medicine, 2020).

Values joined by “and” are separate entries in the source; they are usually repeats but may differ in a detail not shown here. Equal values may be shown once.

Series [1] addresses PKAC-alpha (Homo sapiens, UniProt P17612). Briefly: KINOMEscan select kinase screen. In kind it is binding. Particulars: two experiments. As for the experimental part:
(§1) Kinase Assays. The kinase inhibition assays were conducted by DiscoverX on a platform assay by Ambit BioSciences as described previously 16,17. FKK6 was screened at a single concentration of 10 […]
(§2) The assays measure a compound’s ability to inhibit binding of a canonical ligand substrate, with 0% activity of control corresponding to full inhibition and 100% activity of control to no inhibition. […]

Series [2] addresses PKAC-beta (Homo sapiens, UniProt P22694). Briefly: KINOMEscan select kinase screen. In kind it is binding. The following applies: two experiments. The procedure:
as §1, §2

The test system of series [3] is C57BL/6 mice. Kind of series: 10 Day (acute) toxicity study in mice. In kind it is in vivo, mouse. As for the experimental part: The LS180 cell line was used to assess cell cytotoxicity using the MTT (3‐(4,5‐dimethylthiazolyl‐2)‐2,5‐diphenyltetrazolium bromide) assay as previously described (Bartonkova et al, 2015, 2016). […] FKK6 was selected as a lead compound for assessment, given that it had the more favorable PXR‐selective ligand activity in cells. […] The mice were gavaged for ten consecutive days and necropsied on day 12 with the collection of blood (serum). […] Similarly, a 30‐day toxicity test was conducted in mice using FKK6 at an oral dose of 200 μM in 0.8% DMSO per day. We chose this dose to stay within the safe DMSO dose administered to mice over 30 days. On day 30, we necropsied the mice and collected blood (serum).

In series [4] the test system is mutant PXR.1 (C285I/C301A). Kind of series: PXR luciferase reporter assay in HEK293T cells, mutant PXR.1. In kind it is cell-based, human. Particulars: 10 μM, replicate wells. As for the experimental part:
After 24‐h transfection using Lipofectamine® LTX ([…] of plasmid), cells were exposed to FKK5 for 24 h. […] The data are expressed as mean ± SD RLU (relative light units from luciferase assay) normalized to β‐Gal activity in the same well. Differences were tested using 2‐way ANOVA with Tukey's multiple comparison test, and P < 0.05 was considered significant (*).
A general note: A reporter such as luciferase makes a cellular process visible.

Series [5] has as its target T1, pCAF (Homo sapiens, UniProt Q92831).
T1 construct: purchased Reaction Biology Corp; host or cells: E. coli
Briefly: Histone acetyltransferase assay pCAF (Reaction Biology). In kind it is biochemical. Particulars: substrate Histone H3, replicates. The procedure:
The following […] assays (HDAC, SIRT1, PRMT1, PARP1, p300, pCAF) were performed by Reaction Biology Corp. FKK6 was screened at a single concentration of 10 μM in duplicate in two separate experiments. The appropriate controls for the individual assays are published. The overall […]
enzyme activity in the assay is reported as a % activity in DMSO control wells. Control IC50 […]
Briefly, for the Sirtuin (SIRT1) assay, human SIRT1 (GenBank
Accession No. NM012238) full -length N-terminal His-tag protein (MW 83.2 kDa) was purified after expression in E. coli. The reaction buffer was freshly prepared and constituted 50 mM Tris-HC l ( p H 8), 137 mM NaCl, 2.7 mM KCl, 1 mM MgCl2, and just before use, 1 mg/mL BSA and 1% DMSO was added. The substrate was a fluorogenic acetylated peptide of p53 residues 379-382 (RHKK (Ac)- AM C) . […]
8), 50 mM NaCl, 0.1 mM EDTA, 1 mM DTT, 1 mM PMSF, and 1% DMSO. […] The radioactivity in mixture is detected on washed filter paper using a scintillation counter. […]
Reader (Perkin Elmer) (Ex 360 nm/ Em 460 nm). For all enzyme activity assays, the percentage of enzyme activity (relative to DMSO controls) and IC50 values were calculated using GraphPad Prism 4 program (sigmoidal dose response equations). […]

T1 sequence (Q92831 492-658): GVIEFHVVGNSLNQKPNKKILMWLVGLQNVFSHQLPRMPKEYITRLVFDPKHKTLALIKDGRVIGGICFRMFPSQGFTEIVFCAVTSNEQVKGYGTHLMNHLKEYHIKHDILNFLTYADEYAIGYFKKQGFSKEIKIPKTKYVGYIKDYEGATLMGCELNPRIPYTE

Consider `O=C(c1ccncc1)c1cc2ccccc2n1S(=O)(=O)c1ccccc1` [FKK5, (1-(phenylsulfonyl)-1H-indol-2-yl)(pyridin-4-yl)methanone], for which the remaining binding at 10 µM in series [1] (10000 nM, read-out: %Ctrl) was 100%. In addition, the “%Ctrl” value in series [1] (25000 nM, 25 µM) is 95 %Ctrl; in series [2] (10000 nM, 10 µM), 100 %Ctrl and 57 %Ctrl; in series [2] (25000 nM, 25 µM) it was 92 %Ctrl and 48 %Ctrl. The remaining binding at 25 µM in series [1] (25000 nM, read-out: %Ctrl) is 85%.

Turning to `C#CCC(O)(c1ccncc1)c1cc2ccccc2n1S(=O)(=O)c1ccccc1` (centres unmarked) [FKK6], the serum chemistry profiles entry in series [3] (500 μM in 10% DMSO per day, gavage, ten days) was “did not alter”. The “tissue pathology vs vehicle” value in series [3] (500 μM in 10% DMSO per day, gavage, ten days, necropsy day 12) was “did not significantly impact tissue pathology”. Moreover, in series [3] (10 day, n=6), the “Histopathology: Kidney” value is on record as “Degenerative tubules/vacuoles (rare) (n=6)”, the “Histopathology: Liver” value is reported as “Mild periportal inflammation (n=5)”, the “Histopathology: Lung” value is listed as “Mild leukocytes (n=2)” and the “Histopathology: Spleen” value is given as “Mild lymphoid hyperplasia (n=2)”. Also, in series [4], the “PXR reporter activity, RLU/B-Gal” value is “unable to activate mutant PXR and 17076.9 RLU/B-Gal and 15814.1 RLU/B-Gal and 17887 RLU/B-Gal and 19102.1 RLU/B-Gal”. Further, the “% Enzyme Activity to DMSO controls” value in series [5] (10 μM) was 101.68% and 104.61% and 104.47%. In addition, the remaining activity at 10 µM in series [5] (read-out: % Enzyme Activity to DMSO controls) worked out at 100%.
